Reference: PubChem BioAssay (NCI)
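All cell lines were grown in 96-well plates and treated with compound for 48 hours. TGI: total growth inhibition.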

Key:
Test in all cases: DTP human tumour cell line panel, 48 h
DMS 273 small cell lung = test system: DMS 273 small cell lung
IGROV1 ovarian = test system: IGROV1 ovarian
RXF 393 renal = test system: RXF 393 renal
RXF-631 renal = test system: RXF-631 renal
SR leukemia = test system: SR leukemia
SF-295 CNS = test system: SF-295 CNS
HT29 colon = test system: HT29 colon
NCI-H522 lung = test system: NCI-H522 lung
RPMI-8226 leukemia = test system: RPMI-8226 leukemia
M19-MEL melanoma = test system: M19-MEL melanoma
SK-OV-3 ovarian = test system: SK-OV-3 ovarian
UO-31 renal = test system: UO-31 renal
U251 CNS = test system: U251 CNS
MOLT-4 leukemia = test system: MOLT-4 leukemia
M14 melanoma = test system: M14 melanoma
KM20L2 colon = test system: KM20L2 colon
NCI-H23 lung = test system: NCI-H23 lung
CCRF-CEM leukemia = test system: CCRF-CEM leukemia
HOP-18 NSCLC = test system: HOP-18 NSCLC
K-562 leukemia = test system: K-562 leukemia
HCT-15 colon = test system: HCT-15 colon
SNB-78 CNS = test system: SNB-78 CNS
NCI-H226 lung = test system: NCI-H226 lung
SK-MEL-28 melanoma = test system: SK-MEL-28 melanoma
SK-MEL-5 melanoma = test system: SK-MEL-5 melanoma
HOP-92 NSCLC = test system: HOP-92 NSCLC
NCI-H460 lung = test system: NCI-H460 lung
786-0 renal = test system: 786-0 renal
HCT-116 colon = test system: HCT-116 colon
SN12C renal = test system: SN12C renal
COLO 205 colon = test system: COLO 205 colon
OVCAR-8 ovarian = test system: OVCAR-8 ovarian
SF-268 CNS = test system: SF-268 CNS
SNB-19 CNS = test system: SNB-19 CNS
OVCAR-5 ovarian = test system: OVCAR-5 ovarian
DMS 114 small cell lung = test system: DMS 114 small cell lung
TK-10 renal = test system: TK-10 renal
XF 498 CNS = test system: XF 498 CNS
SK-MEL-2 melanoma = test system: SK-MEL-2 melanoma
A549 NSCLC = test system: A549 NSCLC
SNB-75 CNS = test system: SNB-75 CNS
EKVX NSCLC = test system: EKVX NSCLC
CAKI-1 renal = test system: CAKI-1 renal
UACC-62 melanoma = test system: UACC-62 melanoma
OVCAR-4 ovarian = test system: OVCAR-4 ovarian
MALME-3M melanoma = test system: MALME-3M melanoma
ACHN renal = test system: ACHN renal
UACC-257 melanoma = test system: UACC-257 melanoma
HL-60(TB) leukemia = test system: HL-60(TB) leukemia
OVCAR-3 ovarian = test system: OVCAR-3 ovarian
A498 renal = test system: A498 renal
LXFL 529 NSCLC = test system: LXFL 529 NSCLC
KM12 colon = test system: KM12 colon
SW-620 colon = test system: SW-620 colon
LOX IMVI melanoma = test system: LOX IMVI melanoma
SF-539 CNS = test system: SF-539 CNS
DLD-1 colon = test system: DLD-1 colon
HOP-62 NSCLC = test system: HOP-62 NSCLC
HCC-2998 colon = test system: HCC-2998 colon

Compound [O-][n+]1c2cc3c(cc2[n+]([O-])c2c(O)cccc21)CN(CCN1CCOCC1)C3 has a TGI (DMS 273 small cell lung) greater than 100 µM, a TGI (IGROV1 ovarian) of 39.5 µM and a TGI (RXF 393 renal) of 42.4 µM. The TGI (RXF-631 renal) was greater than 100 µM, the TGI (SR leukemia) was 7.83 µM and the TGI (SF-295 CNS) was 40 µM. It also gave a TGI (HT29 colon) of 50.2 µM, a TGI (NCI-H522 lung) of 19 µM and a TGI (RPMI-8226 leukemia) of 71.7 µM. For the same compound, the TGI (M19-MEL melanoma) was 49 µM, the TGI (SK-OV-3 ovarian) was 58.9 µM and the TGI (UO-31 renal) was 40.9 µM. For the same compound, the TGI (U251 CNS) was 28.7 µM, the TGI (MOLT-4 leukemia) was 26.9 µM and the TGI (M14 melanoma) was greater than 100 µM. For the same compound, the TGI (KM20L2 colon) was greater than 100 µM, the TGI (NCI-H23 lung) was 71 µM and the TGI (CCRF-CEM leukemia) was 47 µM. The TGI (HOP-18 NSCLC) was greater than 100 µM, the TGI (K-562 leukemia) was 54.2 µM and the TGI (HCT-15 colon) was greater than 100 µM. It also gave a TGI (SNB-78 CNS) greater than 100 µM, a TGI (NCI-H226 lung) greater than 100 µM and a TGI (SK-MEL-28 melanoma) greater than 100 µM. It also gave a TGI (SK-MEL-5 melanoma) greater than 100 µM, a TGI (HOP-92 NSCLC) of 32.3 µM and a TGI (NCI-H460 lung) of 28.1 µM. It also gave a TGI (786-0 renal) greater than 100 µM, a TGI (HCT-116 colon) of 33.2 µM and a TGI (SN12C renal) greater than 100 µM. For the same compound, the TGI (COLO 205 colon) was 30.5 µM, the TGI (OVCAR-8 ovarian) was 32.5 µM and the TGI (SF-268 CNS) was 60.6 µM. The TGI (SNB-19 CNS) was greater than 100 µM, the TGI (OVCAR-5 ovarian) was greater than 100 µM and the TGI (DMS 114 small cell lung) was 25.4 µM. It also gave a TGI (TK-10 renal) greater than 100 µM, a TGI (XF 498 CNS) of 33.5 µM and a TGI (SK-MEL-2 melanoma) of 53 µM. The TGI (A549 NSCLC) was greater than 100 µM, the TGI (SNB-75 CNS) was greater than 100 µM and the TGI (EKVX NSCLC) was 68 µM. For the same compound, the TGI (CAKI-1 renal) was greater than 100 µM, the TGI (UACC-62 melanoma) was 74.7 µM and the TGI (OVCAR-4 ovarian) was greater than 100 µM. For the same compound, the TGI (MALME-3M melanoma) was greater than 100 µM, the TGI (ACHN renal) was 66.9 µM and the TGI (UACC-257 melanoma) was 87.2 µM. It also gave a TGI (HL-60(TB) leukemia) of 36.8 µM, a TGI (OVCAR-3 ovarian) of 50.8 µM and a TGI (A498 renal) greater than 100 µM. The TGI (LXFL 529 NSCLC) was 62.1 µM and the TGI (KM12 colon) was 31.8 µM.
CC(=O)c1cccc(NC(=O)C(=O)C(C(=O)NN)c2ccccc2)c1 (stereo not drawn) gave a TGI (DMS 273 small cell lung) greater than 100 µM, a TGI (IGROV1 ovarian) greater than 100 µM and a TGI (RXF 393 renal) greater than 100 µM. For the same compound, the TGI (RXF-631 renal) was greater than 100 µM, the TGI (HT29 colon) was greater than 100 µM and the TGI (NCI-H522 lung) was greater than 100 µM. The TGI (RPMI-8226 leukemia) was greater than 100 µM, the TGI (M19-MEL melanoma) was greater than 100 µM and the TGI (SK-OV-3 ovarian) was greater than 100 µM. It also gave a TGI (UO-31 renal) greater than 100 µM, a TGI (U251 CNS) greater than 100 µM and a TGI (SW-620 colon) greater than 100 µM. The TGI (MOLT-4 leukemia) was greater than 100 µM, the TGI (M14 melanoma) was greater than 100 µM and the TGI (KM20L2 colon) was greater than 100 µM. It also gave a TGI (NCI-H23 lung) greater than 100 µM, a TGI (CCRF-CEM leukemia) greater than 100 µM and a TGI (HOP-18 NSCLC) greater than 100 µM. It also gave a TGI (K-562 leukemia) greater than 100 µM, a TGI (LOX IMVI melanoma) greater than 100 µM and a TGI (HCT-15 colon) greater than 100 µM. It also gave a TGI (NCI-H226 lung) greater than 100 µM, a TGI (SK-MEL-28 melanoma) greater than 100 µM and a TGI (SK-MEL-5 melanoma) greater than 100 µM. It also gave a TGI (HOP-92 NSCLC) greater than 100 µM, a TGI (NCI-H460 lung) greater than 100 µM and a TGI (786-0 renal) greater than 100 µM. For the same compound, the TGI (HCT-116 colon) was greater than 100 µM, the TGI (SN12C renal) was greater than 100 µM and the TGI (COLO 205 colon) was greater than 100 µM. For the same compound, the TGI (OVCAR-8 ovarian) was greater than 100 µM, the TGI (SF-268 CNS) was greater than 100 µM and the TGI (SNB-19 CNS) was greater than 100 µM. For the same compound, the TGI (OVCAR-5 ovarian) was greater than 100 µM, the TGI (SF-539 CNS) was greater than 100 µM and the TGI (DMS 114 small cell lung) was greater than 100 µM. For the same compound, the TGI (TK-10 renal) was greater than 100 µM, the TGI (XF 498 CNS) was greater than 100 µM and the TGI (SK-MEL-2 melanoma) was greater than 100 µM. The TGI (DLD-1 colon) was greater than 100 µM, the TGI (A549 NSCLC) was greater than 100 µM and the TGI (SNB-75 CNS) was greater than 100 µM. The TGI (HOP-62 NSCLC) was greater than 100 µM, the TGI (EKVX NSCLC) was greater than 100 µM and the TGI (CAKI-1 renal) was greater than 100 µM. For the same compound, the TGI (UACC-62 melanoma) was greater than 100 µM, the TGI (OVCAR-4 ovarian) was greater than 100 µM and the TGI (MALME-3M melanoma) was greater than 100 µM. It also gave a TGI (HCC-2998 colon) greater than 100 µM, a TGI (ACHN renal) greater than 100 µM and a TGI (UACC-257 melanoma) greater than 100 µM. The TGI (OVCAR-3 ovarian) was greater than 100 µM, the TGI (A498 renal) was greater than 100 µM and the TGI (LXFL 529 NSCLC) was greater than 100 µM. It also gave a TGI (KM12 colon) greater than 100 µM.
